Laboratory results from US9708272B2, “Inhibitors of α-amino-β-carboxymuconic acid semialdehyde decarboxylase” (TES Pharma S.r.l., priority 2014, dated 2017).
“Also recorded” adds a separate entry of the source.

How the values were obtained:
[1] = system: HePG2 cells; experiment: Cytotoxicity (LDH release, ATP level) in HePG2 cells; format: cell-based; details: 10 nM to 300 μM; 4 hrs; DMSO 1%
Experimental: (§1) HePG2 and AML-12 cells are seeded and a dose-response of the compound is performed at various concentrations. Cells are stimulated and the supernatant is used to perform LDH release as a measure of necrosis while the cells are lysed to detect ATP levels for determining cell viability.
(§2) Cytotoxicity: 20000 HePG2 and AML-12 cells were seeded in 96 well plate (Viewplate PerkinElmer). Dose-response of the compound in Table 2 was performed using HP D300 digital dispenser, ranging from 10 nM to 300 μM with constant DMSO 1% in medium. Cells were stimulated for 4 hrs at 37° C.; the supernatant was used to perform LDH release (Cytotox-one, Promega) as a measure of necrosis while the cells were lysed to detect ATP level for determining cell viability (Celltiter-glo, Promega) according to manufacturer's instructions.

[2] = target: hERG potassium channel (Homo sapiens (Human), UniProt Q12809); experiment: Predictor hERG assay, fluorescence polarization tracer displacement; details: hERG channel affinity binding; DMSO 1%
Excerpt: The Predictor hERG assay kit is stably transfected with hERG potassium channel and a high-affinity red fluorescent hERG channel ligand and is used for the determination of hERG channel affinity binding of compounds of Formula (I), Formula (Ia), Formula (Ib), Formula (II), or Formula (III), or a pharmaceutically acceptable salt thereof. Compounds that bind to the hERG channel protein (competitors) are identified by their ability to displace the tracer which results in a lower fluorescence polarization.
The Predictor hERG assay kit (Invitrogen), containing membrane preparations from Chinese hamster ovary cells stably transfected with hERG potassium channel and a high-affinity red fluorescent hERG channel ligand (tracer), was used for the determination of hERG channel affinity binding of the test compounds in Table 2. Compounds that bind to the hERG channel protein (competitors) were identified by their ability to displace the tracer, resulting in a lower fluorescence polarization. The final concentration of DMSO in each well was maintained at 1%. The assays were performed according to the manufacturer's protocol (Invitrogen).

[3] = system: human primary hepatocytes; experiment: NAD+ content in human primary hepatocytes (LCMS/MS); format: cell-based; details: 0.5 μM and 5 μM, FIG. 1
Experimental: Primary hepatocytes are treated with different concentrations of a compound of Formula (I), Formula (Ia), Formula (Ib), Formula (II), or Formula (III), or a pharmaceutically acceptable salt thereof, or MEHP (control) after seeding. The compound is replaced every 24 hours, and then cells are directly harvested and lysed to detect NAD^+ content through LC MS/MS (liquid chromatography mass spectrometry/mass spectroscopy).
The NAD^+ concentration or content was determined in human primary hepatocytes treated with Compound 4. Vehicle (NT) was used as a control.
At least three experiments were run treating primary hepatocytes with different concentrations of Compound 4 (0.5 μM and 5 μM) after 48 hrs from seeding. Compound 4 was replaced every 24 hrs, and then cells were directly harvested and lysed with ACN/H2O (ratio 5:1). LCMS/MS was used to detect and measure NAD^+ concentration/content. […] (FIG. 1)
The NAD^+ concentration or content was determined in human primary hepatocytes treated with Compound 1 and MEHP, a known ACMSD inhibitor. MEHP was used as a control.
At least three experiments were run treating primary hepatocytes with different concentrations of Compound 1 (0.5 μM, 5 μM, and 50 μM) after 48 hrs from seeding. Compound 1 was replaced every 24 hrs, and then cells were directly harvested and lysed with ACN/H2O (ratio 5:1). […]

[4] = system: AML-12 cells; experiment: Cytotoxicity (LDH release, ATP level) in AML-12 cells; format: cell-based, mouse; details: 10 nM to 300 μM; 4 hrs; DMSO 1%
Experimental: as §1, §2

[5] = system: SOD2; experiment: Modulation of SOD2 activity in murine primary hepatocytes; format: cell-based, mouse
Experimental: (§3) Primary hepatocytes or AML-12 cells are lysed and total protein concentration is determined using the Bradford assay. SOD2 activity is determined at indicated times after treatment with a compound of Formula (I), Formula (Ia), Formula (Ib), Formula (II), or Formula (III), or a pharmaceutically acceptable salt thereof, using a SOD Assay Kit. Absorbance is determined and results are expressed in U/ml/mg of protein according to the standard curve and measured protein concentration.
Primary hepatocytes were prepared from 8-12-week-old C57BL/6J mice by collagenase perfusion method. Mouse livers were perfused with Hank's balanced salt solution (HBSS, KCl, 5.4 mM; KH2PO4, 0.45 mM; NaCl, 138 mM; NaHCO3, 4.2 mM; Na2HPO4, 0.34 mM; glucose, 5.5 mM; […]; EGTA, 50 mM; CaCl2, 50 mM; pH 7.4). Livers were then washed at a rate of 5 ml/min through the portal vein. After washing, livers were perfused with collagenase (0.025%) solution. Cell viability was assessed by the trypan blue method. Isolated primary hepatocytes were plated with DMEM medium (Gibco) including 10% FCS, 10 units per ml penicillin and HEPES for buffering. The cells were maintained in culture at 37° C. in a humidified atmosphere of 5% CO2/95% air. After 6-8 hrs of attachment, this medium was replaced with media containing different concentrations of an ACMSD inhibitor (i.e., Compound 1 or Compound 17) or with the corresponding concentration of DMSO (as a control). Primary hepatocytes were harvested about 24 hrs later if not indicated differently.
(§4) Primary hepatocytes or AML-12 cells were then lysed in a 20 mM HEPES buffer (Gibco), pH 7.2, containing 1 mM EGTA (Sigma), 210 mM mannitol (Sigma), and 70 mM sucrose (AMRESCO). Total protein concentration was determined using the Bradford assay (BioRad). SOD-2 activity was determined at indicated times after ACMSD inhibitor treatment by the SOD Assay Kit (Cayman Chemical) according to the manufacturer's instructions. In order to specifically detect the SOD2 activity 2 mM potassium cyanide was added to the assay, which inhibited both Cu/Zn-SOD and extracellular SOD, resulting in the detection of only Mn-SOD (SOD-2) activity. Absorbance was determined with a Victor X4 multi-label plate reader (Perkin-Elmer) at 450 nm. Results are expressed in U/ml/mg of protein according to the standard curve and measured protein concentration.

[6] = system: SOD2; experiment: Modulation of SOD2 activity in AML-12 cells; format: cell-based, mouse; details: 24 hours
Experimental: as §3, with “concentration. […]” for “concentration.”
as §4, with “In order to specifically detect the SOD2 activity 2 mM potassium cyanide was added to the assay, which inhibited both Cu/Zn-SOD and extracellular SOD, resulting in the detection of only Mn-SOD (SOD-2) activity.” left out

[7] = system: FoxO1; experiment: FoxO1 phosphorylation levels in AML-12 cells (western blot); format: cell-based, mouse; details: 24 hours, FIG. 6
Experimental: AML-12 cells are treated with different concentrations of a compound of Formula (I), Formula (Ia), Formula (Ib), Formula (II), or Formula (III), or a pharmaceutically acceptable salt thereof. Cells are then lysed, and analyzed by SDS-PAGE/western blot. Blocking and antibody incubations are then done and each protein present is detected with its specific antibody.
AML-12 cells were treated with different concentrations of Compound 1 or Compound 17 for 24 hours. Cells were then lysed in lysis buffer (50 mM Tris, 150 mM KCl, EDTA 1 mM, NP40 1%) containing protease and phosphatase inhibitors, and analyzed by SDS-PAGE/western blot. Blocking and antibody incubations were done in 5% milk. Each protein present was detected with its specific antibody. Tubulin antibody was obtained from Sigma Inc, FoxO1 and phopho-FoxO1 (Ser256) antibodies were obtained from Cell Signaling. Antibody detection reactions were developed by enhanced chemiluminescence (Advansta, Calif., USA) using x-ray films.

[8] = system: murine primary hepatocytes; experiment: NAD+ content in murine primary hepatocytes (HPLC, mass-spectrometry); format: cell-based, mouse; details: 24 hours
[9] = system: SIRT1-regulated genes (Pgc1a, Sod1, Sod2); experiment: RT-qPCR analysis of SIRT1-regulated genes in primary murine hepatocytes; format: cell-based; details: primary mouse hepatocytes; 24 hrs; 5 nM-500 nM range
Experimental: Cells (AML-12, Hepa-1.6, HEK-293, primary human and murine hepatocytes) are treated with different concentrations of a compound of Formula (I), Formula (Ia), Formula (Ib), Formula (II), or Formula (III), or a pharmaceutically acceptable salt thereof and the gene expression of ACMSD, Pgc1a, Sod1, and Sod2 (MnSOD) is determined using RT-qPCR. Total RNA is extracted from cells and the extracted RNA is treated with DNase and used for reverse transcription (RT).
Gene expression of ACMSD and genes known to be regulated by SIRT1, (an enzyme that is strictly NAD^+ dependent) such as Pgc1a, Sod1, Sod2 (MnSOD), were analysed in AML-12 cells, Hepa-1.6 cells and primary murine hepatocytes treated with Compound 1 or 17.
Cells (AML-12, Hepa-1.6, HEK-293, primary human and murine hepatocytes) were treated with different concentrations of Compound 1 or Compound 17. Total RNA was extracted from cells using TRIzol (Invitrogen) according to the manufacturer's instructions. The RNA was treated with DNase, and 2 μg of RNA was used for reverse transcription (RT). 50× diluted cDNA was used for RT-quantitative PCR (RT-qPCR) reactions. The RT-qPCR reactions were performed using the Light-Cycler system (Roche Applied Science) and a qPCR Supermix (QIAGEN) with the indicated primers. The average of at least three technical repeats was used for each biological data point.

[10] = system: Caspase 3/7; experiment: Modulation of caspase 3/7 activity in MDCK cells injured with cisplatin; format: cell-based
Experimental: MDCK cells are cultured in base medium to a final concentration of 10%. Cells are plated into 96 wells and 24 hours after cell plating the medium is changed with fresh medium supplemented with 1% FBS. Cisplatin is then used to induce cell injury. Different concentrations of Formula (I), Formula (Ia), Formula (Ib), Formula (II), or Formula (III), or a pharmaceutically acceptable salt thereof (in DMSO) are added in combination with cisplatin or prior to adding cisplatin. Caspase 3/7 activity (Promega) is determined according to standard procedures using a luminescent signal readout on a plate reader. Each experiment/condition is performed in triplicate. Caspase activity is analyzed as percentage effect normalized to the cisplatin alone and vehicle treated cells.
MDCK cells (MDCK (NBL-2) ATCC® CCL-34™) were cultured in base medium ATCC-formulated Eagle's Minimum Essential Medium, Catalog No. 30-2003 with fetal bovine serum (FBS) to a final concentration of 10%. […]
Caspase 3/7 activity (Promega) was determined according to standard procedures using a luminescent signal readout on a Victor V plate reader (PerkinElmer). […]
Caspase activity was analyzed as percentage effect normalized to the cisplatin alone (100%) and vehicle treated cells as 0% of caspase activity. Data were analyzed by GraphPad Software. […]

hERG potassium channel, sequence (Q12809 whole entry): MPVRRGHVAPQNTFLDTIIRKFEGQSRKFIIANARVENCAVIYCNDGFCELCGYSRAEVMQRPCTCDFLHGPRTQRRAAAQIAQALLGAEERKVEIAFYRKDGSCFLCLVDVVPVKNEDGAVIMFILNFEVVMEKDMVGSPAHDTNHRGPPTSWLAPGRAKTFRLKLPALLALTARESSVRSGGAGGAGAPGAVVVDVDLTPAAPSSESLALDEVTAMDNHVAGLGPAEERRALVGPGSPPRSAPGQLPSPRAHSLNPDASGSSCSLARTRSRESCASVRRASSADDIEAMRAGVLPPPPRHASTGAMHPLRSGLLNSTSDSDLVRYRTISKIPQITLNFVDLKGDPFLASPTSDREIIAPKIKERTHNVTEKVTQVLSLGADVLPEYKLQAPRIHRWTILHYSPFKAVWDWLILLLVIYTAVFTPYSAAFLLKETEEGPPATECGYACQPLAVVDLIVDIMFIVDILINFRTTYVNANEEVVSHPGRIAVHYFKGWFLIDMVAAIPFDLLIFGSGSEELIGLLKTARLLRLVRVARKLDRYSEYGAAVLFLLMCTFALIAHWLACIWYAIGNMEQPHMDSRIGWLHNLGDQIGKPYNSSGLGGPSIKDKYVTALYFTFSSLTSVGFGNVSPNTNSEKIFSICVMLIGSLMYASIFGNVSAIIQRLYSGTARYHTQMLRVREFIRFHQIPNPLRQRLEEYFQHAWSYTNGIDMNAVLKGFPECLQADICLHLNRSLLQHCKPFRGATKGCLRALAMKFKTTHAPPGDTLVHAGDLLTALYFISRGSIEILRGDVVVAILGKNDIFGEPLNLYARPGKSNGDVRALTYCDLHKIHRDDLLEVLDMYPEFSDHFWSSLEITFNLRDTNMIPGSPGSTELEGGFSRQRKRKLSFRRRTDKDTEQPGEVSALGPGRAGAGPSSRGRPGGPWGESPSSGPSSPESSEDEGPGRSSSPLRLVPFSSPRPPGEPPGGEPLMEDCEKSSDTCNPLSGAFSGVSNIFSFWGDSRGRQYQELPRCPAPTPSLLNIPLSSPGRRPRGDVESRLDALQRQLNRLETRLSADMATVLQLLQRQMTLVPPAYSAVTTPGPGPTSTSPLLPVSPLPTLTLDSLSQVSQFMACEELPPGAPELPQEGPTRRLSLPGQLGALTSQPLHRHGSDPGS

SMILES | Cytotoxicity Hep-G2 [1] | hERG [2] | Cytotoxicity AML-12 [4] | also measured
N#Cc1c(-c2cccs2)nc(SCc2cccc(C(=O)O)c2)[nH]c1=O [Compound 4] | Not Toxic | No Activity | Not Toxic | ACMSD-1 inhibition (NAD+ concentration/content) [3]: inhibits ACMSD-1 enzyme at concentrations as low as 0.5 μM and 5 μM
N#Cc1c(-c2nccs2)nc(SCc2cccc(C(=O)O)c2)[nH]c1=O [Compound 5] | Not Toxic | No Activity | Not Toxic | 
N#Cc1c(-c2ccc(Cl)cc2)nc(SCc2ccc(C(=O)O)cc2)[nH]c1=O [Compound 8] | Not Toxic | No Activity | Not Toxic | 
O=C(O)c1cccc(CSc2nc(-c3ccccc3)c(Br)c(=O)[nH]2)c1 [Compound 11] | Not Toxic | No Activity | Not Toxic | 
N#Cc1c(-c2cccs2)nc(SCc2cccc(-c3nn[nH]n3)c2)[nH]c1=O [Compound 17] | Not Toxic | No Activity | Not Toxic | dose at which effects on SOD2 activity were observed ([5]; primary hepatocytes): about 5 nM; dose at which the effect on SOD2 activity reached a maximum ([5]; primary hepatocytes): about 50 nM; SOD2 activity ([5]; primary murine hepatocytes, 24 hours): induced in a dose-dependent manner; SOD2 activity [6]: induced in a dose-dependent manner; FoxO1 phosphorylation at Ser256 [7]: decrease in FoxO1 phosphorylation at Ser256 with increasing dose; intra-cellular NAD+ levels ([8]; 5 nM, 10 nM and 50 nM, FIG. 2): increase in NAD^+ levels; also recorded: significant and dose-dependent increase; concentration with significant effect on NAD+ levels [8]: ≤ 5 nM; Pgc1a mRNA expression levels [9]: dose-dependent increase; Sod2 (MnSOD) mRNA expression levels [9]: dose-dependent increase
N#Cc1c(-c2cccs2)nc(SCc2cccc(CC(=O)O)c2)[nH]c1=O [Compound 18] |  |  |  | activity of caspase 3/7 induced by cisplatin ([10]; cisplatin 50 μM for 16 hrs): decreases, in significant manner; concentration with significant decrease of caspase activity vs cisplatin alone (p<0.001) ([10]; in combination with cisplatin): 100 µM
N#Cc1c(-c2cccs2)nc(SCc2cccc(-c3noc(=O)[nH]3)c2)[nH]c1=O [Compound 19] | Not Toxic | No Activity | Not Toxic | 
